Assays:
Assay type in all cases: binding
[1] = molecular target: kinases (KINOMEscan panel) (Homo sapiens, UniProt P10721, D816H); details: NEW KINOMEscan
[2] = molecular target: kinases (KINOMEscan panel) (Homo sapiens, UniProt O95747); details: NEW KINOMEscan
[3] = molecular target: T1, kinases (KINOMEscan panel) (Homo sapiens, UniProt Q13470); details: TNK1; NEW KINOMEscan
T1 sequence (Q13470 1-666): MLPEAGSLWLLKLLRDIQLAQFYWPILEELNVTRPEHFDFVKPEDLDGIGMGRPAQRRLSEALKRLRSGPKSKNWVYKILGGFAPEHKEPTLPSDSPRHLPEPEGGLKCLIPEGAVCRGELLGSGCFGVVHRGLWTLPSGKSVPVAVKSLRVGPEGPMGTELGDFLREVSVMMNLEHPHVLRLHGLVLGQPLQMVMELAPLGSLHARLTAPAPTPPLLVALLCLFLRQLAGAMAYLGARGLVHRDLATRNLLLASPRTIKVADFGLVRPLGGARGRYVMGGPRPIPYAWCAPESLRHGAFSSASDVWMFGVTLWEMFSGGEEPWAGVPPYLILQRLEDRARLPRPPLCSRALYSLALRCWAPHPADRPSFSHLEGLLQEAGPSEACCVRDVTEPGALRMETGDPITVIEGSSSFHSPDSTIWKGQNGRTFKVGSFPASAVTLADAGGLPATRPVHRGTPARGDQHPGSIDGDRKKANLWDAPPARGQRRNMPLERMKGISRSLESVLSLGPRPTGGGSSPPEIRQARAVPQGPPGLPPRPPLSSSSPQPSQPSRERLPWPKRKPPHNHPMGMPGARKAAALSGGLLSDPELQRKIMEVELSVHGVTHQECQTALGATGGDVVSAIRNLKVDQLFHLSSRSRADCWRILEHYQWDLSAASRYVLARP

[4] = molecular target: kinases (KINOMEscan panel) (Homo sapiens, UniProt P19525); details: kinase ElF2AK2; NEW KINOMEscan
[5] = molecular target: T2, kinases (KINOMEscan panel) (Homo sapiens, UniProt P54753); details: kinase EPHB3; NEW KINOMEscan
T2 sequence (P54753 34-998): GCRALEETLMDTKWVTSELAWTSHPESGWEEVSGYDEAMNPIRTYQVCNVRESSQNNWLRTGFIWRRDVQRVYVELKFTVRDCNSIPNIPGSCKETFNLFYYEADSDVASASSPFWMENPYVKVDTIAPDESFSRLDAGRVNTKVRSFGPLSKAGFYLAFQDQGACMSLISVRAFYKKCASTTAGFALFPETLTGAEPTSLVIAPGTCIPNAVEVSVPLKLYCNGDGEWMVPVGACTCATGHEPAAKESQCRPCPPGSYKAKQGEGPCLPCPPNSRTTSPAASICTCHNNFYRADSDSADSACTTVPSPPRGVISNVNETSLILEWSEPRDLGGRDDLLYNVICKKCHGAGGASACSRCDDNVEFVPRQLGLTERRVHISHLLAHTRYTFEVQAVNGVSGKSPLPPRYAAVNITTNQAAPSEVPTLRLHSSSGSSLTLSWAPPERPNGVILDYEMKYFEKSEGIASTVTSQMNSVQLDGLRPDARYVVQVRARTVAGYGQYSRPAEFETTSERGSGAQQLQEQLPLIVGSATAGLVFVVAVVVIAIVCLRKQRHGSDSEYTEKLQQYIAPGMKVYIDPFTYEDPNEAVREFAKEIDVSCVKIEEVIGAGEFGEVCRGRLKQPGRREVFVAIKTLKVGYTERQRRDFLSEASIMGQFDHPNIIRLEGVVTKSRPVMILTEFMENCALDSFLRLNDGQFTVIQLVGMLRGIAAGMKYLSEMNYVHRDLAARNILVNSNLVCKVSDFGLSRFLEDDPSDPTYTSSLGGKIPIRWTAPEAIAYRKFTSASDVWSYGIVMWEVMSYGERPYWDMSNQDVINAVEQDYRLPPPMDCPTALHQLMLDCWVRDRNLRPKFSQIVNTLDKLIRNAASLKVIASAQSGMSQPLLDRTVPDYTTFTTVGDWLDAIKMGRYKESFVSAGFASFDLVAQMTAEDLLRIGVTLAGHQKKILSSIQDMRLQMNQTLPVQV

[6] = molecular target: T3, kinases (KINOMEscan panel) (Homo sapiens, UniProt O76039); details: kinase CDKL5; NEW KINOMEscan
T3 sequence (O76039 1-960): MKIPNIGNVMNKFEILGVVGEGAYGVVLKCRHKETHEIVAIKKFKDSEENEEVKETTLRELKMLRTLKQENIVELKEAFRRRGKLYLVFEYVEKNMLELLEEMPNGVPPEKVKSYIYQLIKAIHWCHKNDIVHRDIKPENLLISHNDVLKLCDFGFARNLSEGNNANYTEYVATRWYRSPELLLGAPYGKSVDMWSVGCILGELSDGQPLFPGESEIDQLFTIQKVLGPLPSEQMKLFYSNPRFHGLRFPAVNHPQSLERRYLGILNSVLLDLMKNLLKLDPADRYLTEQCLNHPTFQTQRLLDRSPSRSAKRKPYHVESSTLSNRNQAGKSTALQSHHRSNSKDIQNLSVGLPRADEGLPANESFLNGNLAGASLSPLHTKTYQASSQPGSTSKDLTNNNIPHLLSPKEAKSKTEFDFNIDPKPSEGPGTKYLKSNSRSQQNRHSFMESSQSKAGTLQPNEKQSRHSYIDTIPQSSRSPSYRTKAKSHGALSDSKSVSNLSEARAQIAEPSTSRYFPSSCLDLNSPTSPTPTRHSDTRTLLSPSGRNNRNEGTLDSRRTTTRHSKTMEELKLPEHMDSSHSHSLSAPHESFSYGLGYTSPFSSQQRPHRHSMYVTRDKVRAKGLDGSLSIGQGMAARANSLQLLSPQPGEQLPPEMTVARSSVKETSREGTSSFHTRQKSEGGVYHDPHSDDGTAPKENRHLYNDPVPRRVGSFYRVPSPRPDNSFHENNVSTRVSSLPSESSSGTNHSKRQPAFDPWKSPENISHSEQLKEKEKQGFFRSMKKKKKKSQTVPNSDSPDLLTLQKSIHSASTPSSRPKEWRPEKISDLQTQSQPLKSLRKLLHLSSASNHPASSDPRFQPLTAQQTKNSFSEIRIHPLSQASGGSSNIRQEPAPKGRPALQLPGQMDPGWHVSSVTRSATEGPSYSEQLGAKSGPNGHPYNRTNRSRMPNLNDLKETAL

[7] = molecular target: kinases (KINOMEscan panel) (Homo sapiens, UniProt O43683); details: kinase BUB1; NEW KINOMEscan
[8] = molecular target: kinases (KINOMEscan panel) (Homo sapiens, UniProt P29376); details: LTK; NEW KINOMEscan
Sequence of kinases (KINOMEscan panel) (Homo sapiens, UniProt P29376) (P29376 17-864): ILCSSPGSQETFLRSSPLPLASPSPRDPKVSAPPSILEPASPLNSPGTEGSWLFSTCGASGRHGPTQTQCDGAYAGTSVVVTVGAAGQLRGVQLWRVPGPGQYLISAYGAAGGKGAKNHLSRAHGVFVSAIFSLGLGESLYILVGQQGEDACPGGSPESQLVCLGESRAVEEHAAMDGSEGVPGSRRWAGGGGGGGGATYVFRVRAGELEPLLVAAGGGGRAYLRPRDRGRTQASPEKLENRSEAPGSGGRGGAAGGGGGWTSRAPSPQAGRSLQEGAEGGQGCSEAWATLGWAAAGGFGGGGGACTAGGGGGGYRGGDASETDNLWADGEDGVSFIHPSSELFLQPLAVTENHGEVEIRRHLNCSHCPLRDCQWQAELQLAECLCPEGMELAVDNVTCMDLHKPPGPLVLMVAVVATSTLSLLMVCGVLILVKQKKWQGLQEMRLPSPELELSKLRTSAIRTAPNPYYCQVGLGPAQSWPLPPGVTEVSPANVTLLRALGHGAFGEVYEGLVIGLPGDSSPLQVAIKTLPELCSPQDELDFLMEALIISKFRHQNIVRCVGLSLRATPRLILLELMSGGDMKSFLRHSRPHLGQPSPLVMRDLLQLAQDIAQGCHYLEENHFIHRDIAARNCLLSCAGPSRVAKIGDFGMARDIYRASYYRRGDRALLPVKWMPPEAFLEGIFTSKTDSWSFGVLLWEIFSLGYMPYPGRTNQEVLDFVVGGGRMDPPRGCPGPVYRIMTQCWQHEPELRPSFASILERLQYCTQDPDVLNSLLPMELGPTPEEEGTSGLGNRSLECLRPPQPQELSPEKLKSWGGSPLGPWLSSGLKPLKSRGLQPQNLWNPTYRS

Sequence of kinases (KINOMEscan panel) (Homo sapiens, UniProt P19525) (P19525 whole entry): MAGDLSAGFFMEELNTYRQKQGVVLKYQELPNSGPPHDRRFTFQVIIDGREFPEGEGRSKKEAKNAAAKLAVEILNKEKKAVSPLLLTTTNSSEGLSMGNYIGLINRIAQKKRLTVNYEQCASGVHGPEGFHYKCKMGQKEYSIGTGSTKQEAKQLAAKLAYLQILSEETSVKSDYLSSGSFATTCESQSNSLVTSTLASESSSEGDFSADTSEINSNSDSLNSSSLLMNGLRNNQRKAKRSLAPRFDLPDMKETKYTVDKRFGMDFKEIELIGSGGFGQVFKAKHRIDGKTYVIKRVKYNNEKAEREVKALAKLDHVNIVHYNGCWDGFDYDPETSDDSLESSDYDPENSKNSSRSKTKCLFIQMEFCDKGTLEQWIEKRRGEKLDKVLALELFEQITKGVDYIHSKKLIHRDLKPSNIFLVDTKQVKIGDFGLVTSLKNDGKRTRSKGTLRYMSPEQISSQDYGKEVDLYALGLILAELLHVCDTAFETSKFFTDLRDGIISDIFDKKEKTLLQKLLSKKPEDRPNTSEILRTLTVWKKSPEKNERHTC
Sequence of kinases (KINOMEscan panel) (Homo sapiens, UniProt O43683) (O43683 whole entry): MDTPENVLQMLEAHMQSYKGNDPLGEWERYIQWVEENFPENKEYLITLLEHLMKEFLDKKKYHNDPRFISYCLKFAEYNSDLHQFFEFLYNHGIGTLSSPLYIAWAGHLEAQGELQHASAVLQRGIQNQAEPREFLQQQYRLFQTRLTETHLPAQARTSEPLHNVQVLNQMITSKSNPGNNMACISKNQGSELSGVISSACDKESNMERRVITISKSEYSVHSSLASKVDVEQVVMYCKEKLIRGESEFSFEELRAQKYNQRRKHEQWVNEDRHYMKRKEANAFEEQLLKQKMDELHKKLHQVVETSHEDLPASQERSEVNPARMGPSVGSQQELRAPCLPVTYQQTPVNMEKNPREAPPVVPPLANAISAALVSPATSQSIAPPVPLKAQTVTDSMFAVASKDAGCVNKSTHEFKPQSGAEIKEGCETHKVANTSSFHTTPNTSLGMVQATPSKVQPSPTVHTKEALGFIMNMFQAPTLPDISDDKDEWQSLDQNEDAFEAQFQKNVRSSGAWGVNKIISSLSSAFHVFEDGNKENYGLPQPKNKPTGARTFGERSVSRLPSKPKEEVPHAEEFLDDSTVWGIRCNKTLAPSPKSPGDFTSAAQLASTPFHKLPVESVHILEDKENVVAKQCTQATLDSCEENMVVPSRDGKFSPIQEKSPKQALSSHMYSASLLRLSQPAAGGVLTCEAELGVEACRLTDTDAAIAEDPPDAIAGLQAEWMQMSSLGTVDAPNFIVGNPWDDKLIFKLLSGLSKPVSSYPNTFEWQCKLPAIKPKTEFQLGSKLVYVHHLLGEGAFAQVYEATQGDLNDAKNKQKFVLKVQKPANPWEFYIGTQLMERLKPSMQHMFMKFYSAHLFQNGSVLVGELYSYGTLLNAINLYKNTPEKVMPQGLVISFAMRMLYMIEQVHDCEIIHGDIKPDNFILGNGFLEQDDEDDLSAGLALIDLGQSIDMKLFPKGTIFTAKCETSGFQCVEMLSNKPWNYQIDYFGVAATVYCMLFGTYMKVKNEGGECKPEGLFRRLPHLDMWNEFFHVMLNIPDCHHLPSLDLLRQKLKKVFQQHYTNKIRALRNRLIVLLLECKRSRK
Sequence of kinases (KINOMEscan panel) (Homo sapiens, UniProt P10721, D816H) (P10721 26-976 D816H): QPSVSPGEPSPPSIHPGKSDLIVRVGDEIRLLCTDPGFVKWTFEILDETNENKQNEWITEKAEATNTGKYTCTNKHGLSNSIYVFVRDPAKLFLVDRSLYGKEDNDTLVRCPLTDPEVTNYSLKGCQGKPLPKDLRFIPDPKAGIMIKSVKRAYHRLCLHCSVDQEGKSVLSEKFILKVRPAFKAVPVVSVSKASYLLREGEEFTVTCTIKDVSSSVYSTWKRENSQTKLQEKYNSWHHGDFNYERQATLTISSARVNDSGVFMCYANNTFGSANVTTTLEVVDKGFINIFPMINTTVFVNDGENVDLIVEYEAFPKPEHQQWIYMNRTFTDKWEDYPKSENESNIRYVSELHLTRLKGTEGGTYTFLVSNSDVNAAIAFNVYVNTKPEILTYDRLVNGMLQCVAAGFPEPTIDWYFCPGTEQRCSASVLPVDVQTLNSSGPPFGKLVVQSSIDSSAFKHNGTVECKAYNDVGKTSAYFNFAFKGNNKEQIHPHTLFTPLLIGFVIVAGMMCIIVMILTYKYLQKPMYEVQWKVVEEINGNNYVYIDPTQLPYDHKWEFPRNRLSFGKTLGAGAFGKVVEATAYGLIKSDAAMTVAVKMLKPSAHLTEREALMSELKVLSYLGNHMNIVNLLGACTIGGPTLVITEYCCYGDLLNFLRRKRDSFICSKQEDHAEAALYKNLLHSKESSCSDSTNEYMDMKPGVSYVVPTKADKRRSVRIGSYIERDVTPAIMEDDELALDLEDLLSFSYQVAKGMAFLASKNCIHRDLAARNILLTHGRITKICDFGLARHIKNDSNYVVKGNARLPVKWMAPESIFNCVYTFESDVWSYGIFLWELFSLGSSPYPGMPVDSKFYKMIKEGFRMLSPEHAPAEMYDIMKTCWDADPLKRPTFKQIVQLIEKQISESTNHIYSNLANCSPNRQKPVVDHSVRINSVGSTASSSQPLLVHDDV
Sequence of kinases (KINOMEscan panel) (Homo sapiens, UniProt O95747) (O95747 whole entry): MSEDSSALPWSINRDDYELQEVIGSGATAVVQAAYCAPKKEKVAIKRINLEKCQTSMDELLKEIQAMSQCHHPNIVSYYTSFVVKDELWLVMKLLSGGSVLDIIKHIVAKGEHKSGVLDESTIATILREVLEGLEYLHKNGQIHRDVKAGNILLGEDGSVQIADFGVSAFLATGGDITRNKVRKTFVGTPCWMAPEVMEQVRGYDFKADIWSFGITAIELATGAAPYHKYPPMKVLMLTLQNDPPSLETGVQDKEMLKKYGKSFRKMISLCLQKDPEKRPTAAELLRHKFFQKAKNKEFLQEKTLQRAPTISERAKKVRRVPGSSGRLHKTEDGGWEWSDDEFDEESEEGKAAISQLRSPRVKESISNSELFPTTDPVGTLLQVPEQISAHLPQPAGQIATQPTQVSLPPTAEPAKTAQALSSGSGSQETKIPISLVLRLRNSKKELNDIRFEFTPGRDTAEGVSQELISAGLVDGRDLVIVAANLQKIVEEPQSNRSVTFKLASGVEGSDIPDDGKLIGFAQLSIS

Row | Structure (SMILES) | KINOMEscan KIT(D816H) [1] | KINOMEscan OSXR1 [2] | KINOMEscan TNK1 [3] | KINOMEscan ElF2AK2 [4] | KINOMEscan EPHB3 [5] | KINOMEscan CDKL5 [6] | KINOMEscan BUB1 [7] | KINOMEscan LTK [8]
1 | Cc1cccc(-c2nc(Nc3ccc4nn(C)cc4c3)c3ccccc3n2)n1 [NK167] | 13 | 11 | 0 | 19 | 6 | 0 | 0 | 6
2 | Cc1cccc(-c2nc(N(C)c3ccc4ncsc4c3)c3ccccc3n2)n1 [NK-161] | 16 | 25 | 7 | 7 | 6 | 3 | 0 | 14
